The source of these data is PubChem BioAssay AID1159612.

The structures appear in SMILES notation. Active and inactive are the calls of the source.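 The calls were made as follows: active = compounds displacing the labeled ligand from RAR alpha with half-maximal potency at 10 µM or stronger; inactive = the rest.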

This assay addresses Retinoic acid receptor alpha (Homo sapiens) (UniProt P10276). The assay is described as follows: ligand displacement at retinoic acid receptor alpha – biochemical, [3H]9-cis-retinoic acid, RARalpha, dose response (AID 1159612). The conditions noted are these: RARalpha radioligand binding, [3H]9-cis-RA displacement.

Retinoic acid receptor alpha (Homo sapiens), sequence (P10276 whole entry, looked up): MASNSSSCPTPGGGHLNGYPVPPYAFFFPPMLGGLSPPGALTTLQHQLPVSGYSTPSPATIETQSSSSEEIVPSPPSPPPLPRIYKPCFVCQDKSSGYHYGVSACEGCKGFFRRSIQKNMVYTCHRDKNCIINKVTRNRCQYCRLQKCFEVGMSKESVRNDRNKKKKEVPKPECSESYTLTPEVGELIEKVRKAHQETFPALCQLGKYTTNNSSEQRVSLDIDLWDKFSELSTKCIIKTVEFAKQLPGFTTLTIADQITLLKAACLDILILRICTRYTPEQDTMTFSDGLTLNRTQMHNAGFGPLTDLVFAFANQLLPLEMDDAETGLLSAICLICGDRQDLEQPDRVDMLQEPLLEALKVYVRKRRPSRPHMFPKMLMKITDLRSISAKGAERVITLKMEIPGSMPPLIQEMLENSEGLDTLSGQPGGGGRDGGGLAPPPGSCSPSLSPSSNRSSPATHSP

As for `CC1=C[C@H](O)CC(C)(C)[C@H]1/C=C/C(C)=C/C=C/C(C)=C/C=C/C=C(C)/C=C/C=C(C)/C=C/C1=C(C)C[C@@H](O)CC1(C)C`, the IC50 entry is “inactive”.
